# Earlier results as cited in PMC8252455, “Prediction of a clinically effective dose of THY1773, a novel V 1B receptor antagonist, based on preclinical data” (Biopharmaceutics & Drug Disposition, 2021).
# Test system: depressive symptoms
# Design: method as in Griebel, Beeské, & Stahl, 2012
# Details: patients with MDD; ref Griebel, Beeské, & Stahl, 2012; cited from earlier work
smiles,measurement,value
COc1ccc(S(=O)(=O)N2C(=O)[C@@](c3ccccc3OC)(N3C[C@H](O)C[C@H]3C(=O)N(C)C)c3cc(Cl)ccc32)c(OC)c1 [SSR149415],Antidepressant effect in MDD trials,failed to demonstrate clear antidepressant effects
